Laboratory results published in patent US20260250320A1, “LIPIDATED PEPTIDE INHIBITORS OF INTERLEUKIN-23 RECEPTOR” (Janssen Pharmaceutica NV, priority 2023, published 2026).
*1 amine or outer side, *2 acyl side, *3 side chain or, on linkers, in order; H or OH if unused. Where a SMILES comes first, the peptide text is derived from it. Bridges are numbered along the chain shown (N, C = ends). Side-chain parts run from the residue outwards. [ ]: non-standard residue; d: D form. The star is where a group is joined. X27 = C[N+](C)(CCNC(=O)COCCOCCNC(=O)COCCOCCNC(=O)CC[C@H](NC(=O)CCCCCCCCCCCCCCCCCCC(=O)O)C(=O)O)CC(=O)*; X13 = O=C(O)CCCCCCCCCCCCCCCCC(=O)NCCOCCOCCOCCOCCOCCOCCOCCOCCOCCOCCOCCOCC(=O)*; X11 = CN(CC(N)=O)C(=O)[C@H](Cc1cccnc1)NC(O)[C@H](CC(N)=O)N*; Me3N+CH2CH2(OCH2CH2)4CO = C[N+](C)(C)CCOCCOCCOCCOCCC(=O)*; Me3N+(CH2)2O(CH2)2O(CH2)2CO = C[N+](C)(C)CCOCCOCCC(=O)*; Trp(7-Me,2,3-dihydro) = Cc1cccc2c1NCC2C[C@H](N)C(=O)O; Trp(7-Me) = Cc1cccc2c(C[C@H](N)C(=O)O)c[nH]c12; C18 diacid = O=C(O)CCCCCCCCCCCCCCCCC(=O)*; X6 = CN(CC[C@H](N[*:1])C(=O)[*:2])[*:3]; γGlu = O=C(O)[C@H](CCC(=O)[*:2])N[*:1]; 2Nal = N[C@@H](Cc1ccc2ccccc2c1)C(=O)O; AEF = NCCOc1ccc(C[C@H](N)C(=O)O)cc1; 3Pal = N[C@@H](Cc1cccnc1)C(=O)O; Lys(Me) = CNCCCC[C@H](N)C(=O)O; NMeK = CN[C@@H](CCCCN)C(=O)O; Pen = CC(C)(S)[C@H](N)C(=O)O; Thp = NC1(C(=O)O)CCOCC1; AEEA = NCCOCCOCC(=O)O; Sar = CNCC(=O)O

How the values were obtained:
IL-23R = molecular target: T1, IL-23R (Homo sapiens, UniProt Q5VWK5); assay: IL23R Reporter Assay; assay type: cell-based; conditions: HEK293 cells containing IL-23R, IL-12Rβ1 and STAT-inducible firefly luciferase reporter; 10 ng/mL IL-23 (EC90); 5 h
T1 construct: HEK293 cells containing IL-23R, IL-12Rβ1 and a firefly luciferase reporter gene driven by a STAT-inducible promoter (Promega); host or cells: HEK293
T1 sequence (Q5VWK5 24-629): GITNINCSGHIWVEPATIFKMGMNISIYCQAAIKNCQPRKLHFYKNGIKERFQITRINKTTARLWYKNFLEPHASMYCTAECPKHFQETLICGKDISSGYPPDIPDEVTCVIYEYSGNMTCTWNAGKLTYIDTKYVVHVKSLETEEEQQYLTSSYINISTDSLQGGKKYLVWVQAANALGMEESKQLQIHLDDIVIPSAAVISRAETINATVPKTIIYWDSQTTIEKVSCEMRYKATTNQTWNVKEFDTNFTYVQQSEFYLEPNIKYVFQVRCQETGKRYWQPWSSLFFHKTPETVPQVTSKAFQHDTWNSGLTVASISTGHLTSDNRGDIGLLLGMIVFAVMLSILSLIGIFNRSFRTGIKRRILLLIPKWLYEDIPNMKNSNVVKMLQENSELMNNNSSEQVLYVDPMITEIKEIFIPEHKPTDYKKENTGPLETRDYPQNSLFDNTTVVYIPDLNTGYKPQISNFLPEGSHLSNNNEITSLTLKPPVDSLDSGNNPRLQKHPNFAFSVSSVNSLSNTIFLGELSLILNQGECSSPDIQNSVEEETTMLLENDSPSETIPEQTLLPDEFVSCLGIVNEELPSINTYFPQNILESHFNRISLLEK
Method in brief: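 IC50 values were fitted with a 4-parameter Hill equation to luciferase signal, scaled between IL-23-only wells (0% inhibition) and 30 μM reference inhibitor (100%). The readout was a STAT-inducible reporter in IL-23R/IL-12Rβ1 HEK293 cells, stimulated with added 10 ng/mL IL-23 (EC90) for 5 h at 37° C and developed with BioGlo.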

[1] = tested on: IL-23-stimulated phosphorylated STAT3 in peripheral blood mononuclear cells (PBMCs); assay: PBMC pSTAT3 Assay; assay type: cell-based; conditions: PBMCs from healthy donors; 30 min preincubation with peptide; IL-23 5 ng/mL for 30 min; phospho-STAT3 by MSD
Method in brief: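 Phospho-STAT3 quantified by Meso Scale assay in lysates of PBMCs exposed to IL-23 (5 ng/mL, 30 min, 37 °C) after 30 min peptide pretreatment. Cells were cryopreserved donor PBMCs activated 4 days with anti-CD3 plus IL-1β (100 ng/mL) and starved ~4 h; IC50 reported.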

Row | Structure (SMILES) | IC50 (IL-23R) | IC50 [1]
1 | CC(=O)N(C)CCCC[C@@H]1NC(=O)[C@H](Cc2c[nH]c3c(C)cccc23)NC(=O)[C@H]([C@@H](C)O)NC(=O)[C@H](CC(=O)N(C)C)NC(=O)[C@@H](NC(=O)CCOCCOCC[N+](C)(C)C)C(C)(C)SSC(C)(C)[C@@H](C(=O)N[C@@H](Cc2ccc(OCCNC(=O)C[N+](C)(C)CCNC(=O)COCCOCCNC(=O)COCCOCCNC(=O)CC[C@H](NC(=O)CCCCCCCCCCCCCCCCCCC(=O)O)C(=O)O)cc2)C(=O)N[C@@H](Cc2ccc3ccccc3c2)C(=O)NC2(C(=O)N[C@@H](CCCCN(C)C(C)=O)C(=O)N[C@@H](CC(N)=O)C(=O)N[C@@H](Cc3cccnc3)C(=O)N(C)CC(=O)N(C)C)CCOCC2)NC1=O [compound 151, cPEG3aCO-Pen(3)-N(N(Me)2)-T-7MeW-K(NMeAc)-Pen(3)-AEF(SP6PEG2PEG2gEC20OH)-2Nal-THP-K(NMeAc)-N-3Pya-Sar-CON(Me)2] ({Me3N+(CH2)2O(CH2)2O(CH2)2CO}-[Pen]D(NMe2)T[Trp(7-Me)][Lys(Me)](Ac)[Pen][AEF](X27)[2Nal][Thp][Lys(Me)](Ac)N[3Pal][Sar]-NMe2; disulfide 1-6) | < 50 nM | < 0.5 nM
2 | CC(=O)N[C@H](CCCNC(=N)N)C(=O)N[C@@H]1C(=O)N[C@@H](CCCCNC(=O)COCCOCCNC(=O)COCCOCCNC(=O)CC[C@H](NC(=O)CCCCCCCCCCCCCCCCC(=O)O)C(=O)O)C(=O)N[C@@H]([C@@H](C)O)C(=O)N[C@@H](Cc2c[nH]c3c(C)cccc23)C(=O)N[C@@H](CCCCN(C)C(=O)CCOCCOCC[N+](C)(C)C)C(=O)N[C@H](C(=O)N[C@@H](Cc2ccc(OCCN)cc2)C(=O)N[C@@H](Cc2ccc3ccccc3c2)C(=O)NC2(C(=O)N[C@@H](CCC(=O)O)C(=O)N[C@@H](CC(N)=O)C(=O)N[C@@H](Cc3cccnc3)C(=O)N(C)CC(N)=O)CCOCC2)C(C)(C)SSC1(C)C [compound 76, MeCO-r-Pen(3)-K(PEG2PEG2gEC18OH)-T-7MeW-K(NMecPEG3a)-Pen(3)-AEF-2Nal-THP-E-N-3Pya-Sar-CONH2] (Ac-[dR][Pen]K([AEEA-AEEA-γGlu-C18 diacid])T[Trp(7-Me)][Lys(Me)](Me3N+(CH2)2O(CH2)2O(CH2)2CO)[Pen][AEF][2Nal][Thp]EN[3Pal][Sar]-NH2; disulfide 2-7) | < 50 nM | < 0.5 nM
3 | Cc1cccc2c1NCC2C[C@@H]1NC(=O)[C@H]([C@@H](C)O)NC(=O)[C@H](CC(=O)N(C)C)NC(=O)[C@@H](NC(=O)CCOCCOCCOCCOCC[N+](C)(C)C)C(C)(C)SSC(C)(C)[C@@H](C(=O)N[C@@H](Cc2ccc(OCCN)cc2)C(=O)N[C@@H](Cc2ccc3ccccc3c2)C(=O)NC2(C(=O)N[C@@H](CCC(=O)O)C(=O)N[C@@H](CC(N)=O)C(=O)N[C@@H](Cc3cccnc3)C(=O)N(C)[C@@H](CCCCNC(=O)COCCOCCOCCOCCOCCOCCOCCOCCOCCOCCOCCOCCNC(=O)CCCCCCCCCCCCCCCCC(=O)O)C(N)=O)CCOCC2)NC(=O)[C@H](CCN(C)C(=O)CCOCCOCCOCCOCC[N+](C)(C)C)NC1=O (some centres unmarked) [compound 136, cPEG5aCO-Pen(3)-N(N(Me)2)-T-7MeW-Dab(NMecPEG5a)-Pen(3)-AEF-2Nal-THP-E-N-3Pya-NMeK(PEG12C18OH)-CONH2] ({Me3N+CH2CH2(OCH2CH2)4CO}-[Pen]D(NMe2)T[Trp(7-Me,2,3-dihydro)][X6](Me3N+CH2CH2(OCH2CH2)4CO)[Pen][AEF][2Nal][Thp]EN[3Pal][NMeK](X13)-NH2; disulfide 1-6) | 50 to 500 nM | 0.5 to 5 nM
4 | CC(=O)NCCCC[C@@H]1NC(=O)[C@H](Cc2c[nH]c3c(C)cccc23)NC(=O)[C@H]([C@@H](C)O)NC(=O)[C@H](CC(N)=O)NC(=O)[C@@H](NC(=O)[C@@H](CCCNC(=N)N)NC(=O)COCCOCCNC(=O)COCCOCCNC(=O)CC[C@H](NC(=O)CCCCCCCCCCCCCCCCC(=O)O)C(=O)O)C(C)(C)SSC(C)(C)[C@@H](C(=O)N[C@@H](Cc2ccc(OCCN)cc2)C(=O)N[C@@H](Cc2ccc3ccccc3c2)C(=O)NC2(C(=O)N[C@@H](CCCCN(C)C(=O)CCOCCOCC[N+](C)(C)C)C(=O)N[C@@H](CC(N)=O)C(O)N[C@@H](Cc3cccnc3)C(=O)N(C)CC(N)=O)CCOCC2)NC1=O (stereo partly drawn) [compound 82, HOC18gEPEG2PEG2CO-r-Pen(3)-N-T-7MeW-K(Ac)-Pen(3)-AEF-2Nal-THP-K(NMecPEG3a)-N-3Pya-Sar-CONH2] ({C18 diacid-γGlu-AEEA-AEEA}-[dR][Pen]NT[Trp(7-Me)]K(Ac)[Pen][AEF][2Nal][Thp][Lys(Me)](Me3N+(CH2)2O(CH2)2O(CH2)2CO)-X11; disulfide 2-7) | < 50 nM | < 0.5 nM
